Where “and” joins values, the source holds several entries; their conditions need not be identical. Identical values can stand only once. Like-named read-outs stand apart in the source and are kept apart here.
How the values were obtained:
[1] = tested on: human erythroleukemia (K562) cell line; test: MTS antiproliferative (cytotoxicity) assay, K562; assay type: cell-based; details: for IC50: Homo sapiens; for SI (selectivity index), K562: Vero as reference cell line
Description: (§1) The cytotoxicity of synthesized 3-azaspiro[bicyclo[3.1.0]hexane-2,5′-pyrimidines] 4 against human erythroleukemia (K562), cervical carcinoma (HeLa), and T lymphocyte (Jurkat), as well as mouse colon carcinoma (CT26) and African green monkey kidney epithelial (Vero) cell lines as reference, was evaluated in vitro by the standard MTS assay for 24 and 72 h.
(§2) All the cell lines (human cervical carcinoma (HeLa), erythroleukemia (K-562), and T lymphocyte (Jurkat) as well as mouse colon carcinoma (CT26) and African green monkey kidney epithelial (Vero)) were obtained from the cell repository “Vertebrate cell culture collection” (supported by the Ministry of Science and Higher Education of the Russian Federation, agreement №075-15-2021-683, Institute of Cytology, Russian Academy of Sciences, Saint Petersburg, Russia). HeLa, Jurkat, and Vero cells were cultured in DMEM (HyClone, South Logan, UT, USA) supplemented with 10% (v/v) fetal bovine serum (Hyclone, GE Healthcare Life Sciences, Logan, UT, USA), and gentamicin (Sigma-Aldrich, St. Louis, MO, USA) at 37 °C in a humidified atmosphere with 5% CO2. K-562 and CT26 cells were grown at RPMI medium (Hyclone, GE Healthcare Life Sciences, Logan, UT, USA), with the same supplements and conditions.
(§3) To evaluate the in vitro toxicity of compounds synthesized, cells were seeded into 96-well plates at a density of 5 × 10^3 cells per well. On the next day, tested compounds were added to the wells at concentrations ranging from […], followed by incubation for 1 and 3 days. Cell proliferation was determined by adding 20 μL of MTS reagent (BioVision, Milpitas, CA, USA) stock solution per well. Each plate was incubated for 2 h at 37 °C in a humidified, 5% CO2 atmosphere. The plates were then read at 495 nm using plate spectrophotometer (Multiskan GO, Thermo Fisher Scientific, Waltham, MA, USA). All samples were measured in triplicates.

CT26 cells [2] = test: Annexin V-FITC/DAPI cell death analysis, CT26; assay type: cell-based, mouse; details: CT26, 10 μg/mL, 72 h; for Necrotic Cells, %: control 0.0 ± 0.0; for Late Apoptotic Cells, %: control 0.9 ± 0.4; for Early Apoptotic Cells, %: control 10.5 ± 0.7; for Live Cells, %: control 88.5 ± 1.1
Description: (§4) The results of cell death detection after the exposure of the HeLa and CT26 cell lines to spiro-fused cycloadducts 4c–i at a dose of 10 μg/mL for 72 h, using Annexin V-FITC/DAPI staining, are shown in Figure 6 and Figure 7, respectively.
(§5) Cells were seeded in 24-well plates, 5 × 10^4 cells per well. After 24 h incubation, cells were treated with compounds 4c–i for 72 h. Then, cells were washed, harvested by trypsinisation, stained with Annexin V-FITC ([…]) and DAPI (Thermo Fisher Scientific, Waltham, MA, USA), in accordance with the protocol of the manufacturer, and analyzed by flow cytometry. The proapoptotic effect of azaspiro[bicyclo[3.1.0]hexane-2,5′-pyrimidines] 4c–i was evaluated by an Annexin V-FITC/DAPI (AV/DAPI) dual-staining assay to examine the occurrence of phosphatidylserine externalization, which facilitated the detection of live cells (lower-left quadrant; AV−/DAPI−), early apoptotic cells (upper-left quadrant; AV+/DAPI−), late apoptotic cells (upper-right quadrant; AV+/DAPI+), and necrotic cells (lower-right quadrant; AV−/DAPI+).

HeLa cells [3] = test: Annexin V-FITC/DAPI cell death analysis, HeLa; assay type: cell-based, human; details: 10 μg/mL, 72 h; for Necrotic Cells, %: control 0.5 ± 0.3; for Early Apoptotic Cells, %: control 4.5 ± 0.7; for Live Cells, %: control 89.0 ± 0.7; for Late Apoptotic Cells, %: control 5.9 ± 0.4
Description: as §4, §5

[4] = tested on: human T lymphocyte (Jurkat) cell line; test: MTS antiproliferative (cytotoxicity) assay, Jurkat; assay type: cell-based; details: for IC50: Homo sapiens, MTS; for SI (selectivity index), Jurkat: Vero as reference cell line
Description: The cytotoxicity of synthesized 3-azaspiro[bicyclo[3.1.0]hexane-2,5′-pyrimidines] 4 against human erythroleukemia (K562), cervical carcinoma (HeLa), and T lymphocyte (Jurkat), as well as mouse colon carcinoma (CT26) and African green monkey kidney epithelial (Vero) cell lines as reference, was evaluated in vitro by the standard MTS assay for 24 and 72 h. The results are presented in Figure 1, Figure 2, Figure 3, Figure 4 and Figure 5 (data on all, tested on K562, HeLa, and CT26 cell lines’ compounds, are given at SI, Figures S1–S3). […] Replacement of the phenyl group by either the carboxymethyl or N-isopropylcarbamoyl group has led to a significant decrease in the activity of spiro-fused cycloadducts comprising azabicyclo[3.1.0]hexane and alloxane moieties.
as §2, §3

HeLa cells [5] = test: Cell cycle distribution by flow cytometry (propidium iodide), HeLa; assay type: cell-based, human; details: for SubG1 (%) / G2/M (%) / S (%) / G0/G1 (%): HeLa, 10 μg/mL, 24 h; for SubG1 (%): control 2.3 ± 0.4; for G2/M (%): control 12.2 ± 1.3; for S (%): control 12.5 ± 1.7; for G0/G1 (%): control 73.1 ± 2.6
Description: (§6) One of the indicators of the influence of biologically active products on the cells is the changed distribution of cells during different stages of the cell cycle. In this work, recently synthesized compounds were tested using flow cytometry for their effect on the distribution of cells in the cell cycle (G0/G1, G2/M, and S). Figure 8, Figure 9 and Figure 10 and Table 3 show the typical data after processing the results from three replicates of each experiment.
(§7) The distribution of HeLa and CT26 cells in the G0/G1-, S-, and G2/M-phases of the cell cycle was obtained by quantification of DNA content in propidium-iodide-stained cells using flow cytometry. Briefly, cells were seeded in 24-well plates at a density of 5 × 10^4 cells per well. After 24 h incubation, cells were exposed to 10 μg/mL of compounds 4c–i (the structure is provided in Scheme 1) for 24 h. The effects of compounds 4d, 4e, 4g, 4h were additionally tested at concentrations of 2 and 5 μg/mL. After incubation with drugs, the cells were detached by exposure to trypsin-EDTA for 5 min at 37 °C and then collected by pipetting. This was followed by treatment with 0.2 mg/mL saponin (Fluka, Waltham, MA, USA), 0.25 mg/mL RNase (Sigma-Aldrich, St. Louis, MO, USA), and 0.05 mg/mL propidium iodide (Invitrogen, Carlsbad, CA, USA). After washing, the samples were analyzed by standard flow cytometer (BD FACSCanto II, Becton Dickinson, San Jose, CA, USA). Then, 10,000 events were acquired for the sample. Data processing was performed using BD FACSDiva 9.0 software.

CT26 cells [6] = test: Cell cycle distribution by flow cytometry (propidium iodide), CT26; assay type: cell-based, mouse; details: for SubG1 (%) / G2/M (%) / S (%) / G0/G1 (%): CT26, 10 μg/mL, 24 h; for SubG1 (%): control 3.6 ± 0.6; for G2/M (%): control 12.3 ± 0.9; for S (%): control 40.1 ± 1.5; for G0/G1 (%): control 44.0 ± 1.7; for cytostatic effect (cell cycle), CT26: CT26 cell line
Description: as §6, §7

[7] = tested on: mouse colon carcinoma (CT26) cell line; test: MTS antiproliferative (cytotoxicity) assay, CT26; assay type: cell-based; details: for SI (selectivity index), CT26: Vero as reference cell line; for IC50: Mus musculus
Description: as §1, §2, §3

[8] = K562, 24 h, read-out: IC50, K562, 24 h
[9] = K562, 72 h, read-out: IC50, K562, 72 h
[10] = 24 h, read-out: IC50, Jurkat, 24 h
[11] = 72 h, read-out: IC50, Jurkat, 72 h
[12] = CT26, 24 h, read-out: IC50, CT26, 24 h
[13] = CT26, 72 h, read-out: IC50, CT26, 72 h

| SMILES | IC50 [1, 8] | IC50 [1, 9] | SI (selectivity index), K562 [1] | Necrotic Cells, % (CT26 cells [2]) | Late Apoptotic Cells, % (CT26 cells [2]) | Early Apoptotic Cells, % (CT26 cells [2]) | Live Cells, % (CT26 cells [2]) | Necrotic Cells, % (HeLa cells [3]) | Early Apoptotic Cells, % (HeLa cells [3]) | Live Cells, % (HeLa cells [3]) | IC50 [4, 10] | IC50 [4, 11] | SI (selectivity index), Jurkat [4] | SubG1 (%) (HeLa cells [5]) | G2/M (%) (HeLa cells [5]) | S (%) (HeLa cells [5]) | G0/G1 (%) (HeLa cells [5]) | SubG1 (%) (CT26 cells [6]) | G2/M (%) (CT26 cells [6]) | S (%) (CT26 cells [6]) | also measured |
| --- | --- | --- | --- | --- | --- | --- | --- | --- | --- | --- | --- | --- | --- | --- | --- | --- | --- | --- | --- | --- | --- |
| CC[C@@H]1NC2(C(=O)NC(=O)NC2=O)[C@]2(c3ccccc3)[C@@H](c3ccccc3)[C@]12c1ccccc1 [Compound 4c] | 12 ± 2 µM | 5 ± 2 µM | 3.2 | 1.8 ± 0.8 % | 6.4 ± 1.0 % | 1.9 ± 0.3 % | 89.8 ± 0.5% | 2.2 ± 0.5 % | 5.6 ± 1.3% | 81.0 ± 4.4 % | 149 ± 33 µM | 15 ± 2 µM | 1.1 | 8.1 ± 1.9 % | 11.0 ± 1.5% | 17.6 ± 1.2 % | 63.3 ± 2.2 % | 2.0 ± 0.4 % | 13.2 ± 2.9 % | 16.3 ± 1.7 % | rate of cell death in HeLa vs control (HeLa cells [3]): not different from the control; G0/G1 (%) (CT26 cells [6]): 68.5 ± 3.0 %; SI (selectivity index), CT26 [7]: 0.8; IC50 [7, 12]: 27 ± 2 µM; IC50 [7, 13]: 20 ± 2 µM |
| O=C1NC(=O)C2(N[C@@H](c3ccccc3)[C@@]3(c4ccccc4)[C@H](c4ccccc4)[C@@]23c2ccccc2)C(=O)N1 [Compound 4i] | 26 ± 4 µM | 8 ± 4 µM | 2.9 | 0.4 ± 0.1 % | 19.5 ± 0.5 % | 4.0 ± 0.1 % | 76.2 ± 0.3 % | 2.1 ± 0.9 % | 12.6 ± 0.8 % | 67.9% and 67.9 ± 2.4 % | 19 ± 2 µM | 14 ± 4 µM | 1.7 | 20.1 ± 1.3 % | 9.9 ± 0.8 % | 18.1 ± 2.4 % | 51.8 ± 4.0 % | 7.2 ± 2.2 % | 22.4 ± 1.7 % | 37.2 ± 0.2 % | Late Apoptotic Cells, % (HeLa cells [3]): 17.3 ± 1.4 %; G0/G1 (%) (CT26 cells [6]): 33.2 ± 0.6 %; cytostatic effect (cell cycle), CT26 (CT26 cells [6]): best effect; SI (selectivity index), CT26 [7]: 2.0; IC50 [7, 12]: 16 ± 2 µM; IC50 [7, 13]: 12 ± 2 µM |
| CCCC[C@@H]1NC2(C(=O)NC(=O)NC2=O)[C@]2(c3ccccc3)[C@@H](c3ccccc3)[C@]12c1ccccc1 [Compound 4e] | 17 ± 2 µM | 4 ± 2 µM | 2.5 | 1.4 ± 0.1 % | 61.6 ± 0.5 % | 23.4 ± 0.8 % | 13.5% and 13.5 ± 0.4 % | 5.6 ± 2.6 % | 18.1 ± 3.1 % | 15.0% and 15.0 ± 2.7 % | 12 ± 2 µM | 9 ± 2 µM | 1.2 | 34.4 ± 5.8 % | 5.7 ± 0.9 % | 16.7 ± 1.2 % | 43.1 ± 1.4 % | 19.3 ± 5.1 % | 14.1 ± 9.4% | 28.5 ± 1.8 % | Late Apoptotic Cells, % (HeLa cells [3]): 61.3 ± 3.8 %; cytostatic effect (cell cycle), HeLa (HeLa cells [5]; HeLa cell line): strongest cytostatic effect; G0/G1 (%) (CT26 cells [6]): 38.1 ± 6.4 %; cytostatic effect (cell cycle), CT26 (CT26 cells [6]): best effect; SI (selectivity index), CT26 [7]: 1.7; IC50 [7, 12]: 10 ± 2 µM; IC50 [7, 13]: 6 ± 2 µM |
| CSCC[C@@H]1NC2(C(=O)NC(=O)NC2=O)[C@]2(c3ccccc3)[C@@H](c3ccccc3)[C@]12c1ccccc1 [Compound 4h] | 20 ± 4 µM | 10 ± 2 µM | 2.2 | 0.9 ± 0.3 % | 24.0 ± 0.7 % | 4.8 ± 0.5 % | 70.3 ± 0.6 % | 1.9 ± 0.2 % | 9.8 ± 1.0 % | 72.2% and 72.2 ± 0.4 % | 18 ± 4 µM | 13 ± 4 µM | 1.7 | 9.9 ± 7.8 % | 12.6 ± 0.8% | 13.9 ± 1.8% | 63.6 ± 6.8 % | 10.8 ± 2.3 % | 18.9 ± 6.8 % | 32.0 ± 0.6 % | Late Apoptotic Cells, % (HeLa cells [3]): 15.3 ± 0.5 %; G0/G1 (%) (CT26 cells [6]): 38.3 ± 7.9 %; cytostatic effect (cell cycle), CT26 (CT26 cells [6]): best effect; SI (selectivity index), CT26 [7]: 1.4; IC50 [7, 12]: 22 ± 2 µM; IC50 [7, 13]: 16 ± 2 µM |

— article PMC9506420, “Biological Evaluation of 3-Azaspiro[Bicyclo[3.1.0]Hexane-2,5′-Pyrimidines] as Potential Antitumor Agents” (International Journal of Molecular Sciences, 2022)
